Assay results published in US20230121313A1 (priority 2019, published 2023).

Legend:
[1] = system: elderly subjects with TRD; assay: MADRS total score, Study […]3005 (change, response, remission); format: in vivo, human
Procedure: The primary objective of this study was to evaluate the efficacy of switching elderly subjects with treatment-resistant depression (TRD) from a prior antidepressant treatment (to which they have not responded) to flexibly dosed intranasal esketamine (28 mg, 56 mg or 84 mg) plus a newly initiated oral antidepressant compared with switching to a newly initiated oral antidepressant plus intranasal placebo, in improving depressive symptoms, as assessed by the change from baseline in the Montgomery-Asberg Depression Rating Scale (MADRS) total score from Day 1 (pre-randomization) to the end of the 4-week double-blind induction phase.
Primary Efficacy Evaluation: The primary efficacy evaluation is described in Example 1. Key Secondary Efficacy Evaluation (Clinician-completed): The key secondary efficacy evaluation (clinician-completed) is described in Example 1. Key Secondary Efficacy Evaluation (Patient-reported Outcome): The key secondary efficacy evaluation (patient-reported outcome) is described in Example 1. Primary Endpoint: The primary efficacy endpoint is described in Example 1. Primary Endpoint Results: The primary endpoint results are the same as described in Example 1. See, Table 34 and FIG. 19.
As specified in the SAP, the weighted combination test was the primary analysis for the primary efficacy endpoint since an interim analysis for sample size re-estimation was conducted. A post-hoc analysis using an unweighted MMRM analysis (essentially disregarding the interim analysis) was performed and the one-sided p-value was 0.018 using this approach. The post-hoc one-sided p-value was 0.017 using the unweighted ANCOVA analysis.
Response (≥50% improvement from baseline in the MADRS total score) and Remission (MADRS total score is ≤12) rates are presented in Table 35.
For the clinician-rated assessments, MADRS was administered at baseline and days 8, 15, 22 and 28. MADRS scores were obtained remotely by telephone by independent raters blinded to subject's treatment response. Similarly, the Clinical Global Impressions-Severity (CGI-S) scale was administered at baseline; days 4, 8, 11, 15, 18, 22, 25; and at the 4-week double-blind end point.
For the MADRS, PHQ-9, and SDS total scores, the test for treatment effect was based on mixed model for repeated measures (MMRM) on observed case data with change from baseline as the response variable and the fixed effect model terms for treatment (ESK+AD, AD+PBO), day, class of oral AD (SNRI or SSRI), and treatment-by-day, and baseline value as a covariate. […]
Efficacy was determined by measuring MADRS total scores, SDS scores, PHQ-9 scores and CGI-S scores. […]

[2] = system: subjects with MDD at imminent risk for suicide; assay: Beck Hopelessness Scale (BHS), Study […]2001; format: in vivo, human; conditions: 84 mg; for BHS total score change, Diff. of LS Means (minus Placebo): ANCOVA LOCF; for BHS total score, change from baseline, mean / BHS total score, change from baseline, median / BHS total score, mean / BHS total score, median: LOCF, N 35
From the text: • a. Changes from baseline to Day 2 and Day 25 for the MADRS total score • b. Changes from baseline to Day 1 4-hours postdose, Day 2 and Day 25 for the MADRS Suicide Item • c. Changes from baseline to Day 1 4-hours postdose, Day 2, and Day 25 for the clinical global judgment of suicide risk from the Suicide Ideation and Behavior Assessment Tool (SIBAT) • d. Sustained response (Onset of Clinical Response) defined as at least 50% reduction from baseline in MADRS total score with onset on Day 1 that is maintained through the end of the double-blind phase (Day 25) • e. Changes from baseline to Day 1 4-hours postdose, Day 2, and Day 25 for the Beck Scale for Suicidal Ideation (BSS) • f. Changes from baseline to Day 1 4-hours postdose and Day 25 for the Beck Hopelessness Scale
The BHS is a self-reported measure to assess one's level of negative expectations or pessimism regarding the future. It consists of 20 true-false items that examine the respondent's attitude over the past week by either endorsing a pessimistic statement or denying an optimistic statement. For every statement, each response is assigned a score of 0 or 1. The total BHS score is a sum of item responses and ranges from 0 to 20, with a higher score representing a higher level of hopelessness.

SMILES: CN[C@]1(c2ccccc2Cl)CCCCC1=O [esketamine, (S)-2-(2-chlorophenyl)-2-(methylamino)cyclohexanone]
- MADRS total score: difference in LS mean change (SE), MMRM ([1]; Day 28, subjects aged 65-74): −4.9 (2.04)
- MADRS total score: difference in LS mean change (SE), MMRM ([1]; Day 28, subjects aged 75 and above): −0.4 (5.02)
- MADRS total score: LS mean (SE) treatment difference ([1]; Stage 1 (enrolled before interim analysis)): −1.6 (2.62)
- MADRS total score: LS mean (SE) treatment difference ([1]; Stage 2 (enrolled after interim analysis)): −5.6 (2.63)
- BHS total score change, Diff. of LS Means (minus Placebo) ([2]; Day 1 (DB): 4 H): −1.5
- BHS total score, change from baseline, mean ([2]; Day 1 (DB): 4 H): −4.1
- BHS total score, change from baseline, median ([2]; Day 1 (DB): 4 H): −2.0
- BHS total score, mean ([2]; Day 1 (DB): 4 H): 12.3
- BHS total score, median ([2]; Day 1 (DB): 4 H): 14.0
- BHS total score change, Diff. of LS Means (minus Placebo) ([2]; End Point (DB)): −2.3
- BHS total score, change from baseline, mean ([2]; End Point (DB)): −10.3
- BHS total score, change from baseline, median ([2]; End Point (DB)): −11.0
- BHS total score, mean ([2]; End Point (DB)): 6.2
- BHS total score, median ([2]; End Point (DB)): 4.0
